For assay [1], the target named is T1, 5-HT2 (Rattus norvegicus, UniProt P14842).
T1 construct: from tissue; host or cells: whole anaesthetised male Sprague-Dawley rat in vivo (vasculature; arterial blood pressure recorded)
Put plainly: 5-HT2 antagonism: inhibition of hypertensive response to 5-hydroxytryptamine. In kind it is in vivo, rat (male Sprague-Dawley). Particulars: iv, 10 min, i.v., cumulative doses, 5-hydroxytryptamine 100 μg/kg i.v., prazosin pretreatment, read-out: ID50, dose inhibiting the hypertensive response by 50%. As to the method:
Male Sprague-Dawley rats (350-400 g) are anesthetized i.p. with pentobarbital (45 mg/kg). The trachea is cannulated and the animals are subjected to artificial respiration. The vagus nerves are sectioned. A catheter is placed in a carotid artery to record the arterial blood pressure. A second catheter is placed in the vein of the penis and is used for the injections. The animals' temperature is taken and is maintained at 37° C. The rats are pretreated with d-tubocurarine (1 mg/kg i.v.) an prazosin (1 mg/kg i.v.). 5-Hydroxytryptamine is injected i.v. at a dose of 100 μg/kg twice, separated by an interval of 10 minutes, so as to determine the rise in the systolic arterial blood pressure of each rat 10 minutes later, the compounds of the invention are injected at the lowest dose and injection of 5-hydroxytryptamine is performed again 10 minutes later. 3 or 4 cumulative doses of the compounds of the invention are tested in the same manner. The percentages of the hypertensive response which are obtained at the different doses are calculated in order to determine the ID50, the dose inhibiting the hypertensive response by 50%.

The subject of assay [2] is 5-HTP. The assay can be described thus: 5-HTP antagonism: forepaw treading, flat body posture and head twitches induced by 5-hydroxytryptophan. The format is in vivo, rat (female Wistar). Particulars: Rattus norvegicus. The procedure:
4 Female Wistar rats (270±30 g), fasted for approximately 24 hours, are used. At the beginning of the test, they are administered the "control" solution or solutions of 5-hydroxytryptophan at a dose of 320 mg/kg. The animals are then placed under observation in transparent cages. Three parameters are assessed in the study: "forepaw treading", "flat body posture" and "head twitches". "Forepaw treading" corresponds to a pedalling motion of the forelimbs. This parameter is measured 80 minutes after the administration of 1,5-hydroxytryptophan and during a ten-minute observation period. This time is divided into 5- second periods and, if a movement is observed in this period, a score of 1 is assigned, the maximum score being […] for the ten minutes of observation and for each animal. The parameter "head twitches" relates to the number of twitches of the head of the animals observed during 10 minutes. This parameter is assessed 90 minutes after the administration of 1,5-hydroxytryptophan and during a 10- minute period. "Flat body posture" corresponds to a flattening of the body which lasts for more than 10 minutes. This parameter is assessed throughout the period of observation of the animals.

In assay [3] the test system is α1 receptor. As to conditions: in words; cited from earlier work.
The mark [4] stands for this setting: sc, read-out: ED50 HT (head twitches).
[5] abbreviates: sc, subcutaneously, 5-hydroxytryptophan 320 mg/kg, Table IV, read-out: ED50 FBP (flat body posture).
Setting [6] is: sc, subcutaneously, 5-hydroxytryptophan 320 mg/kg, Table IV, read-out: ED50 FPT (forepaw treading).

Counter-ions that a name gives are not always drawn. Like-named read-outs stand apart in the source and are kept apart here. Where only a bound is given, the exact number is not on record here.

T1 sequence (P14842 whole entry): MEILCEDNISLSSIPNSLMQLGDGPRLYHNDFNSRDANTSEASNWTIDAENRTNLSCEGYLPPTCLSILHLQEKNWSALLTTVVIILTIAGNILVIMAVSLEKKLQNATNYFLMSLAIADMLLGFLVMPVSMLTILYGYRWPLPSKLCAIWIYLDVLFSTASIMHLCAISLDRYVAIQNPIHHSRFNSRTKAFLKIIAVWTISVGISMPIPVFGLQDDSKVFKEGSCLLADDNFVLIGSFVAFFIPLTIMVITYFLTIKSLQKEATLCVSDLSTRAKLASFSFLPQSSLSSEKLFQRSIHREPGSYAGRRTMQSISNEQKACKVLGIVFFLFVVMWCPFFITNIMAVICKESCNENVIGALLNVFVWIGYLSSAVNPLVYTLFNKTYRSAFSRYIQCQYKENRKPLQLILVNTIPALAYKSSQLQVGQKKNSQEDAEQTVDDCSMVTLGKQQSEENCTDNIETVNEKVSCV

Take `Cc1nc2c(C#N)ncn2c(O)c1CCN1CCC(C(=O)c2ccc(F)cc2)CC1` [EXAMPLE 1, 8-Cyano-3-{2-[4-(4-fluorobenzoyl)piperidino]ethyl}-4-hydroxy-2-methylimidazo[l,5-a]pyrimidine hydrochloride]: the ED50 in assay [1] is 4.5 µg/kg; in assay [2] (setting [4]), above 40 mg/kg; in assay [2] (setting [5]) it was 0.04 mg/kg; in assay [2] (setting [6]) it was 40 mg/kg.

Turning to `Cl.O=C(c1ccc(F)cc1)C1CCN(CCCN2C(=O)CN(Cc3ccccc3F)CC2=O)CC1` [EXAMPLE 2, 1-{3-[4-(4-Fluorobenzoyl)piperidino]propyl}-4-(2-fluorobenzyl) piperazine 2,6-dione hydrochloride], the ED50 came to 14 µg/kg in assay [1], 5 mg/kg in assay [2] (setting [4]), 0.31 mg/kg in assay [2] (setting [5]) and 10 mg/kg in assay [2] (setting [6]).

Take `Cl.O=C(c1ccc(F)cc1)C1CCN(CCCN2C(=O)CN(Cc3ccccn3)CC2=O)CC1` [EXAMPLE 3, 1-{3-[4-(4-Fluorobenzoyl)piperidino]propyl}-4-(2-pyridylmethyl) piperazine 2,6-dione hydrochloride]: the ED50 was found to be 5 mg/kg in assay [2] (setting [4]), 0.31 mg/kg in assay [2] (setting [5]) and 1.25 mg/kg in assay [2] (setting [6]).

Regarding `Cl.O=C(c1ccc(F)cc1)C1CCN(CCCCN2C(=O)CN(Cc3ccccc3F)CC2=O)CC1` [EXAMPLE 4, 1-{4-[4-(4-Fluorobenzoyl)piperidino]butyl}-4-(2-fluorobenzyl) piperazine 2,6-dione hydrochloride], the ED50 in assay [2] (setting [5]) was 10 mg/kg; in assay [2] (setting [6]) it was 5 mg/kg.

In the case of `O=C(CC1CCN(CCCN2C(=O)CN(Cc3ccccc3F)CC2=O)C1)c1ccc(F)cc1.O=C(O)C(O)C(O)C(=O)O` (stereo not shown) [EXAMPLE 5, 4-(2-Fluorobenzyl)-1-{3-[3-(4-fluorophenacyl)-1-pyrrolidinyl]propyl}piperazine 2,6-dione tartrate], the results for the ED50 in assay [2] (setting [4]), in assay [2] (setting [5]) and in assay [2] (setting [6]) were above 10 mg/kg, 0.31 mg/kg and 10 mg/kg, respectively.

Take `O=C(CC1CCCN(CCCN2C(=O)CN(Cc3ccccc3F)CC2=O)C1)c1ccc(F)cc1` (stereo not shown) [EXAMPLE 6, 4-(2-Fluorobenzyl)-1-{3-[3-4-fluorophenacyl)piperidino]propyl)}piperazine 2,6-dione ditartrate]: the values for the ED50 in assay [1], in assay [2] (setting [5]) and in assay [2] (setting [6]) were 3.7 µg/kg, 1.25 mg/kg and 2.5 mg/kg, respectively.

On to `Cl.Cl.O=C(c1ccc(F)cc1)C1CCN(CCCN2CCN(c3ncccn3)CC2)CC1` [EXAMPLE 7, 1-{3-[4-(4-Fluorobenzoyl)piperidino]propyl}-4-(2-pyrimidinyl) -piperazine dihydrochloride], for which the ED50 in assay [2] (setting [4]) was above 10 mg/kg; in assay [2] (setting [5]), 1.25 mg/kg; in assay [2] (setting [6]) it was 1.25 mg/kg.

In the case of `Cc1nc2c(C(N)=O)ncn2c(O)c1CCN1CCC(C(=O)c2ccc(F)cc2)CC1` [EXAMPLE 8, 8-Carbamoyl-3-{2-[4-(4-fluorobenzoyl)piperidino]-ethyl}-4-hydroxy-2-methylimidazol[1,5-a]pyrimidine hydrochloride], the ED50 in assay [1] is 18 µg/kg; in assay [2] (read-out: ED50 HT (head twitches)), above 10 mg/kg; in assay [2] (Table V, route not given, 5-hydroxytryptophan 320 mg/kg, read-out: ED50 FBP (flat body posture)) it was 0.63 mg/kg; in assay [2] (Table V, route not given, 5-hydroxytryptophan 320 mg/kg, read-out: ED50 FPT (forepaw treading)) it was 10 mg/kg.

On to `Cc1nc2c(C(N)=O)ncn2c(O)c1CCN1CCC(CC(=O)c2ccc(F)cc2)C1.Cl` (stereo not shown) [EXAMPLE 9, 8-Carbamoyl-3-{2-[3-(4-fluorophenacyl)-1-pyrrolidinyl]ethyl}-4-hydroxy-2-methylimidazo[1,5-a]pyrimidine hydrochloride], for which the ED50 in assay [1] was determined as 10 µg/kg.

As for `O=C(CC1CCN(CCn2c(=O)[nH]c3ccccc3c2=O)C1)c1ccc(F)cc1` (stereo not shown) [EXAMPLE 10, 2,4-Dioxo-3-{2-[3-(4-fluorophenacyl)-1-pyrrolidinyl]ethyl}-1,2,3,4-tetrahydrocuinazoline hydrochloride], the ED50 in assay [1] was found to be 5.4 µg/kg; in assay [2] (setting [4]) it was 2.5 mg/kg; in assay [2] (setting [5]) it was 0.16 mg/kg; in assay [2] (setting [6]), 0.31 mg/kg.

For the compound `Cc1cccc(CN2CC(=O)N(CCCN3CCC(C(=O)c4ccc(F)cc4)CC3)C(=O)C2)c1.Cl` [EXAMPLE 15, 1-{3-[4-(4-Fluorobenzoyl)piperidino]propyl}-4-(3-methylbenzyl) piperazine 2,6-dione hydrochloride], the ED50 in assay [2] (setting [4]) amounted to 5 mg/kg; in assay [2] (setting [5]) it was 2.5 mg/kg; in assay [2] (setting [6]), 10 mg/kg.

For the compound `COc1cccc(CN2CC(=O)N(CCCN3CCC(C(=O)c4ccc(F)cc4)CC3)C(=O)C2)c1.Cl` [EXAMPLE 18, 1-{3-[4-(4-Fluorobenzoyl)piperidino]propyl}-4-(3-methoxybenzyl) piperazine 2,6-dione hydrochloride], the ED50 was found to be 2.5 mg/kg in assay [2] (setting [5]) and 5 mg/kg in assay [2] (setting [6]).

As to `Cl.Cl.O=C(c1ccc(F)cc1)C1CCN(CCN2CCN(c3ncccn3)CC2)CC1` [EXAMPLE 21, 4-{2-[4-(4-Fluorobenzoyl)piperidino]ethyl}-1-(2-pyrimidinyl) piperazine dihydrochloride], the ED50 in assay [2] (setting [4]) turned out to be 1.25 mg/kg; in assay [2] (setting [5]) it was 0.63 mg/kg; in assay [2] (setting [6]), 2.5 mg/kg.

With `O=C(c1ccc(F)cc1)C1CCN(CCn2c(=O)[nH]c3ccccc3c2=O)CC1` [KETANSERIN], the α1 antagonist activity result in assay [3] was “devoid of α1 antagonist activity”.
